What was measured:
[1] = tested on: BRSNS (Brassica napus); test: Drought stress test on potted crop plants, spray application, Brassica napus; type: in vivo
Experimental: Seeds of monocotyledonous and dicotyledonous crop plants are placed in sandy loam in wood-fiber pots, covered with soil and cultivated in a greenhouse under good growth conditions. The test plants were treated at the early leaf stage (BBCH10-BBCH13). To ensure uniform water supply before commencement of stress, the potted plants were supplied with the maximum amount of water immediately beforehand by dam irrigation and, after application, transferred in plastic inserts in order to prevent subsequent, excessively rapid drying. The inventive compounds, formulated in the form of wettable powders (WP), wettable granules (WG), suspension concentrates (SC) or emulsion concentrates (EC), were sprayed onto the green parts of the plants as an aqueous suspension at an equivalent water application rate of 600 l/ha with addition of 0.2% wetting agent (agrotin). Substance application was followed immediately by stress treatment of the plants (cold or drought stress). For cold stress treatment, the plants were kept under the following controlled conditions: • “day”: 12 hours with illumination at 8° C. • “night”: 12 hours without illumination at 1° C. Drought stress was induced by gradual drying out under the following conditions: • “day”: 14 hours with illumination at 26° C. • “night”: 10 hours without illumination at 18° C. The duration of the respective stress phases was guided mainly by the state of the untreated, stressed control plants and thus varied from crop to crop. It was ended (by re-irrigating or transfer to a greenhouse with good growth conditions) as soon as irreversible damage was observed on the untreated, stressed control plants. In the case of dicotyledonous crops, for example oilseed rape and soybeans, the duration of the drought stress phase varied between 3 and 5 days, in the case of monocotyledonous crops, for example wheat, barley or corn, between 6 and 10 days. The duration of the cold stress phase varied between 12 and 14 days. […] The intensity of damage was first assessed as a percentage (100%=plants have died, 0%=like control plants). […]

[2] = tested on: ZEAMX (Zea mays); test: Drought stress test on potted crop plants, spray application, Zea mays; type: in vivo; conditions: dosage 250 g/ha
Experimental: (§1) Seeds of monocotyledonous and dicotyledonous crop plants are placed in sandy loam in wood-fiber pots, covered with soil and cultivated in a greenhouse under good growth conditions. The test plants were treated at the early leaf stage (BBCH10-BBCH13). To ensure uniform water supply before commencement of stress, the potted plants were supplied with the maximum amount of water immediately beforehand by dam irrigation and, after application, transferred in plastic inserts in order to prevent subsequent, excessively rapid drying. The inventive compounds, formulated in the form of wettable powders (WP), wettable granules (WG), suspension concentrates (SC) or emulsion concentrates (EC), were sprayed onto the green parts of the plants as an aqueous suspension at an equivalent water application rate of 600 l/ha with addition of 0.2% wetting agent (agrotin). Substance application was followed immediately by stress treatment of the plants (cold or drought stress). For cold stress treatment, the plants were kept under the following controlled conditions: • “day”: 12 hours with illumination at 8° C. • “night”: 12 hours without illumination at 1° C. […] The intensity of damage was first assessed as a percentage (100%=plants have died, 0%=like control plants). […]

[3] = tested on: cotton; conditions: cited from earlier work
[4] = tested on: TRZAS (Triticum aestivum); test: Drought stress test on potted crop plants, spray application, Triticum aestivum; type: in vivo; conditions: dosage 25 g/ha
Experimental: as §1

O=C(O)CCCc1ccccc1 [4-phenylbutyric acid]
EF (BRSNS), efficacy = percentage reduction in the intensity of damage ([1]; dosage 25 g/ha): >5% | EF (ZEAMX), efficacy = percentage reduction in the intensity of damage [2]: >5%

O=C([O-])CCCc1ccccc1.[Na+] [Compound I-2, Sodium 4-phenylbutyrate]
EF (BRSNS), efficacy = percentage reduction in the intensity of damage ([1]; dosage 250 g/ha): >5% | plant growth ([3]; application to cottonseeds, hence oil content of the harvested material): increases | translocation of mono- and disaccharides ([3]; cotton, seed dressing): positively influenced | protein content of the leaves ([3]; cottonseed dressing, early growth stages, also enhances the yields): increases | flower formation and the maturing of cotton plants ([3]; cottonseed dressing, hence enhances the yields): enhances

O=C(O)CCCc1ccccc1.OCCN(CCO)CCO [Compound I-22, Tris-N,N,N-(2-hydroxy-1-yl)ammonium 4-phenylbutyrate]
EF (BRSNS), efficacy = percentage reduction in the intensity of damage ([1]; dosage 25 g/ha): >5% | EF (TRZAS), efficacy = percentage reduction in the intensity of damage [4]: >5%
